16 compounds from US8314098B2, “Pyrazolo-pyrimidine compounds” (Ajinomoto Co., Inc., priority 2008, dated 2012) can be followed below.

Molecules are shown by their SMILES.

As usually defined, the IC50 is the point on the concentration scale where inhibition reaches its midpoint.

Assay [1] concerns IL-12p70 (the complex of IL-12p35 and p40). As to the kind of experiment: IL-12p70 production inhibition in macrophages derived from mouse abdomen (IFN-γ/SAC stimulation, ELISA). It is filed as cell-based. The following applies: Macrophage; mouse (Balb/c) abdominal macrophages, 100 ng/mL mouse IFN-γ + 0.05% SAC, overnight; TFA salts tested where prepared as such; read-out: IL-12p70-Inhibitory Activity IC50. A digest of the protocol:
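Thioglycolate-elicited adherent peritoneal macrophages from female Balb/c mice were collected 5–6 days after dosing. Cells were stimulated overnight with 100 ng/mL mouse IFN-γ plus 0.05% (v/v) killed S. aureus Cowan I, with compound present. IL-12p70, IL-12p40 and TNF-α in supernatants were measured by ELISA and IC50s derived, with cell survival also checked.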
(In general: ELISA stands for enzyme-linked immunosorbent assay.)

The test system of assay [2] is IL-12p40. The assay can be described thus: IL-12p40 production inhibition in macrophages derived from mouse abdomen (IFN-γ/SAC stimulation, ELISA). Format: cell-based. As to conditions: Macrophage; mouse (Balb/c) abdominal macrophages, 100 ng/mL mouse IFN-γ + 0.05% SAC, overnight. As to the method: (§1) One milliliter each of a 3% (w/v) thioglycolate solution was intraperitoneally administered to mice (female Balb/c mice), the abdominal cells of each mouse were recovered after 5 or 6 days from the administration of the thioglycolate solution and the adhesive cells were collected and used in the exaluation procedures. To a culture medium containing such adhesive cells, there were added 100 ng/mL of mouse interferon-γ and a 0.05% (v/v) liquid containing killed cells derived from Staphylococcus aureus Cowan I strain (SAC) and a candidate compound and then the mixture was cultivated overnight. After the completion of the cultivation, the survival ratios were determined, there were quantitatively determined the quantities of IL-12p70 (the complex of IL-12p35 and p40) and IL-12p40 or TNF-α according to the ELISA assays while making use of the recovered supernatant of the culture medium and the 50% production-inhibitory concentration (IC50) was calculated for each case (see Table 1 and Tables 1-9 for IL-12p70 and TNF-α and Tables 1 to 10 for IL-12p40).

Assay [3] has as its system TNF-α. The assay can be described thus: TNF-α production inhibition in macrophages derived from mouse abdomen (IFN-γ/SAC stimulation, ELISA). It is filed as cell-based. As to conditions: Macrophage; mouse (Balb/c) abdominal macrophages, 100 ng/mL mouse IFN-γ + 0.05% SAC, overnight; TFA salts tested where prepared as such; read-out: TNF-α-Inhibitory Activity IC50. As to the method: as §1

Assay [4] has as its system IL-12p70 (the complex of IL-12p35 and p40). The assay can be described thus: IL-12p70 production inhibition in whole blood of mouse (IFN-γ/SAC stimulation, ELISA). It is filed as cell-based. The following applies: mouse (Balb/c) whole blood, EDTA, 100 ng/mL mouse IFN-γ + 1.25% SAC, overnight; TFA salts tested where prepared as such. The protocol:
The blood was recovered from the mice (female Balb/c mice) (containing added EDTA) and it was used for the evaluation. To a cell culture medium, there were added 100 ng/mL of mouse interferon-γ, 1.25% (v/v) of a liquid containing killed cells derived from Staphylococcus aureus Cowan I strain (SAC) and a candidate compound, the resulting mixture was diluted to a volume equivalent to the blood and then the diluted medium was cultivated overnight. After the completion of the cultivation, the amount of IL-12p70 (the complex of IL-12p35 and p40) was quantitatively determined according to the ELISA assays while making use of the recovered supernatant of the culture medium and the 50% production-inhibitory concentrations (IC50) were calculated for Compounds 38, 80, 82, 83, 84, 85, 87, 90 and 91. (see Table 3).

The test system of assay [5] is mouse enteritis model. The assay can be described thus: Inflammation-inhibitory action in mouse enteritis model (immigration of IL-10-/- cells), weight of large intestine. It is filed as in vivo. From the text: The method for establishing the mouse enteritis model by the immigration of IL-10−/−cells is, for instance, disclosed in Gastroenterology. 2009 February; 136(2): 564-74.e2. Epub 2008 Oct. 7.
The following method was used for the determination of the weight of intestinal tract as an indication of the drug efficacy: On the final day of the autopsy, the large intestine extending from the anus to immediately before the blind gut was surgically excised, the contents of the intestinal tract were washed away with physiological saline, the moisture adhered thereto was roughly removed and then the weight thereof was determined.
The inflammation-inhibitory effect of Compound 1 on the mouse enteritis model was evaluated using this evaluation system and the results obtained were plotted on FIG. 1.

Take `Cc1cccc(/C=N/Nc2cc(N3CCOCC3)n3nccc3n2)c1` [Compound 9, N-(3-methyl-benzylidene)-N′-(7-morpholin-4-yl-pyrazolo-[1,5-a]pyrimidin-5-yl)-hydrazine]: the IC50 in assay [1] was 141 nM; in assay [2], 136 nM; in assay [3] it was greater than 10000 nM.
For `Cc1cccc(/C=N/Nc2cc(N3CCOCC3)n3nc(-c4cccnc4)cc3n2)c1` [Compound 38, N-(3-methyl-benzylidene)-N′-(7-morpholin-4-yl-2-pyridin-3-yl-pyrazolo[1,5-a]pyrimidin-5-yl)-hydrazine], the IC50 in assay [4] is 2700 nM; in assay [1], 11 nM; in assay [3], greater than 10000 nM.
As for `Cc1cc2nc(N/N=C/c3c[nH]c4ccccc34)cc(N3CCOCC3)n2n1` [Compound 80, N-(1H-indol-3-yl-methylidene)-N′-(2-methyl-7-morpholin-4-yl-pyrazolo[1,5-a]pyrimidin-5-yl)-hydrazine], the IC50 in assay [4] is 4900 nM; in assay [1] it was 160 nM; in assay [3], greater than 10000 nM.
Taken in the same sequence, the figures for `C(=N\Nc1cc(N2CCOCC2)n2nc(-c3cccnc3)cc2n1)/c1c[nH]c2ccccc12` [Compound 82, N-(1H-indol-3-yl-methylidene)-N′-(7-morpholin-4-yl-2-pyridin-3-yl-pyrazolo[1,5-a]pyrimidin-5-yl)-hydrazine] were 3200 nM, 4.1 nM and greater than 10000 nM.
As for `Cc1cccc(/C=N/Nc2cc(N3CCOCC3)n3nc(-c4ccncc4)cc3n2)c1` [Compound 83, N-(3-methyl-benzylidene)-N′-(7-morpholin-4-yl-2-pyridin-4-yl-pyrazolo[1,5-a]pyrimidin-5-yl)-hydrazine], the IC50 was 880 nM in assay [4], 8.4 nM in assay [1], 11.3 nM in assay [2] and greater than 10000 nM in assay [3]. Also, the “control effect on weight of the large intestine” value in assay [5] (mouse enteritis model, 30 mg/kg once a day) was “significant control effect”. In addition, in assay [5] (mouse enteritis model, 3, 10, 30 mg/kg, FIG. 1), the “weight of the large intestine increased due to the immigration of IL-10-/- cells” value was “controlled in a dose of Compound 83-dependent manner”.
As to `C(=N\Nc1cc(N2CCOCC2)n2nc(-c3ccncc3)cc2n1)/c1c[nH]c2ccccc12` [Compound 84, N-(1H-indol-3-yl-methylidene)-N′-(7-morpholin-4-yl-2-pyridin-4-yl-pyrazolo[1,5-a]pyrimidin-5-yl)-hydrazine], the IC50 is 2300 nM in assay [4], 3.2 nM in assay [1] and greater than 10000 nM in assay [3].
Taken in the same sequence, the figures for `Cc1cccc(/C=N/Nc2cc(N3CCOCC3)n3nc(-c4ccc(N5CCOCC5)nc4)cc3n2)c1` [Compound 85, N-(3-methyl-benzylidene)-N′-[7-morpholin-4-yl-2-(6-morpholin-4-yl-pyridin-3-yl)-pyrazolo[1,5-a]pyrimidin-5-yl]-hydrazine] were 4200 nM, 3.2 nM and greater than 10000 nM.
For `CCc1cccc(/C=N/Nc2cc(N3CCOCC3)n3nc(-c4cnccn4)cc3n2)c1` [Compound 116, N-(3-ethyl-benzylidene)-N-(7-morpholin-4-yl-2-pyrazin-2-yl-pyrazolo[1,5-a]pyrimidin-5-yl)-hydrazine], the figures for the IC50 in assay [4] and in assay [1] were 3800 nM and 49 nM, respectively.
As to `C(=N\Nc1cc(N2CCOCC2)n2nc(-c3ccncc3)cc2n1)/c1ccc2cc[nH]c2c1` [Compound 117, N-(1H-indol-6-yl-methylidene)-N′-(7-morpholin-4-yl-2-pyridin-4-yl-pyrazolo[1,5-a]pyrimidin-5-yl)-hydrazine], the IC50 in assay [4] turned out to be 280 nM; in assay [1], 56 nM; in assay [2], 97.8 nM.
With `CCc1cccc(/C=N/Nc2cc(N3CCOCC3)n3nc(-c4ccncc4)cc3n2)c1` [Compound 118, N-(3-ethyl-benzylidene)-N-(7-morpholin-4-yl-2-pyridin-4-yl-pyrazolo[1,5-a]pyrimidin-5-yl)-hydrazine], the IC50 in assay [4] stood at 640 nM; in assay [1], 29 nM.
`Cc1cccc(/C=N/Nc2cc(N3CCOCC3)n3nc(-c4ccncn4)cc3n2)c1` [Compound 119, N-(3-methyl-benzylidene)-N-(7-morpholin-4-yl-2-pyrimidin-4-yl-pyrazolo[1,5-a]pyrimidin-5-yl)-hydrazine]: the IC50 in assay [4] was found to be 1000 nM; in assay [1], 47 nM; in assay [2], 70 nM.
For `Cc1cccc(/C=N/Nc2cc(N3CC4C[C@H]3CO4)n3nc(-c4ccncc4)cc3n2)c1` [Compound 121, N-(3-methyl-benzylidene)-N′-[7-(2-oxo-5-azabicyclo-[2.2.1]hept-5-yl)-2-pyridin-4-yl-pyrazolo[1,5-a]pyrimidin-5-yl]-hydrazine] the same measures were 840 nM, 79 nM and 150 nM.
Regarding `C(=N\Nc1cc(N2CCOCC2)n2nc(-c3ccncc3)cc2n1)/c1ccnc2ccccc12` [Compound 122, N-(7-morpholin-4-yl-2-pyridin-4-yl-pyrazolo[1,5-a]-pyrimidin-5-yl)-N′-quinolin-4-yl-methylidene-hydrazine], the IC50 in assay [4] is 2400 nM; in assay [1], 5.6 nM.
For `Cc1cccc(/C=N/Nc2cc(N3CC4COCC4C3)n3nc(-c4ccncc4)cc3n2)c1` (stereo not drawn) [Compound 123, N-(3-methyl-benzylidene)-N′-[2-pyridin-4-yl-7-(tetrahydro-furo[3,4-c]pyrrol-5-yl)-pyrazolo[1,5-a]pyrimidin-5-yl]-hydrazine] the same measures were 440 nM and 300 nM.
For `C(=N\Nc1cc(N2CCOCC2)n2nc(-c3ccncc3)cc2n1)/c1c[nH]c2ncccc12` [Compound 126, N-(7-morpholin-4-yl-2-pyridin-4-yl-pyrazolo[1,5-a]-pyrimidin-5-yl)-N′-(1H-pyrrolo[2,3-b]pyridin-3-yl-methylidene)-hydrazine] the same measures were 760 nM and 110 nM.
For the compound `C(=N\Nc1cc(N2CCOCC2)n2nc(N3CCOCC3)cc2n1)/c1c[nH]c2ccccc12` [Compound 128, N-(1H-indol-3-yl-methylidene)-N-(2,7-di-morpholin-4-yl-pyrazolo[1,5-a]pyrimidin-5-yl)-hydrazine], the IC50 in assay [4] amounted to 4600 nM; in assay [1] it was 140 nM.
